Laboratory results from PubChem BioAssay (NCI).
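Values below derive from 48-hour exposures of cells grown in 96-well plates, with endpoints linearly interpolated between the two concentrations bracketing the appropriate inhibition level. GI50: concentration for 50% inhibition of growth. TGI is the concentration that stops growth completely.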

What was measured:
Experiment in all cases: NCI-60 cell line screen, 48 h
[1] = tested on: HOP-92 NSCLC
[2] = tested on: TK-10 renal
[3] = tested on: OVCAR-3 ovarian
[4] = tested on: HOP-62 NSCLC
[5] = tested on: HCC-2998 colon
[6] = tested on: SR leukemia
[7] = tested on: UO-31 renal
[8] = tested on: DU-145 prostate
[9] = tested on: IGROV1 ovarian
[10] = tested on: SF-539 CNS

Compound | GI50 [1] | TGI [1] | GI50 [2] | TGI [2] | GI50 [3] | TGI [3] | GI50 [4] | TGI [4] | GI50 [5] | TGI [5] | GI50 [6] | TGI [6] | GI50 [7] | TGI [7] | GI50 [8] | TGI [8] | GI50 [9] | TGI [9] | GI50 [10] | TGI [10]
N=c1ccc2nc3c(cc(N)c4ccccc43)oc-2c1 | 1.18 µM | 3.6 µM | 0.737 µM | 2.4 µM | 0.0265 µM | 0.0834 µM | 0.267 µM | 0.798 µM | 0.38 µM | 1.31 µM | 0.285 µM | 1.29 µM | 0.333 µM | 0.958 µM | 0.265 µM | 0.692 µM | 0.18 µM | 0.643 µM | 0.293 µM | 1.05 µM
O=C(N/N=C/c1ccc(Cl)cc1)c1[nH]c2ccc(Cl)cc2c1-c1ccccc1 | 0.424 µM | 41.5 µM | 3.3 µM | 59.7 µM | 0.0265 µM | 0.0584 µM | 0.494 µM | 36.4 µM | 0.326 µM | 15.5 µM | 0.133 µM | 2.09 µM | 0.268 µM | > 65 µM | 0.104 µM | 0.367 µM | 0.0523 µM | 12.1 µM | 0.0947 µM | 0.267 µM
COc1nc(C)cc2c(=O)n(-c3ccccc3)n(CC(O)CN3CCN(c4ccc(Cl)cc4)CC3)c(=O)c12 (stereo not given) | 7.08 µM | 18.5 µM | > 50 µM | > 50 µM | 34.3 µM | > 50 µM | 37.9 µM | > 50 µM | > 50 µM | > 50 µM | > 50 µM | > 50 µM | 46.6 µM | > 50 µM | > 50 µM | > 50 µM | > 50 µM | > 50 µM | 22.7 µM | > 50 µM
COC(=O)[C@H]1[C@H]2C[C@@H]3c4[nH]c5cc(OC)ccc5c4CCN3C[C@H]2C[C@@H](OC(=O)/C=C/c2cc(OC)c(OC)c(OC)c2)[C@@H]1OC | 2.85 µM | 17.4 µM | 3.35 µM | 11.3 µM | 2.62 µM | 6.2 µM | 5.99 µM | 25.5 µM | 24.2 µM | > 100 µM | 2.48 µM | 6.63 µM | 9.63 µM | 33.5 µM | 5.88 µM | > 100 µM | 6.72 µM | 34.6 µM | 12.5 µM | 25.4 µM
Cc1cc(=O)oc2cc(OC(=O)N(CCCl)CCCl)ccc12 |  | 95.9 µM |  | > 100 µM |  | > 100 µM |  | > 100 µM |  | > 100 µM |  | > 100 µM |  | > 100 µM |  | > 100 µM |  | > 100 µM |  | > 100 µM
Clc1ccc2ns[s+]c2c1 |  | > 100 µM |  | > 61.1 µM |  | > 100 µM |  | > 29.9 µM |  | > 100 µM |  | > 31.6 µM |  | > 66.8 µM |  | > 100 µM |  | > 100 µM |  | 37.8 µM
